GOT, GPT and positive response data for two compounds are collected here from patent US7150886B2, “Composition for treating diseased liver” (Industrial Technology Research Institute, priority 2002, dated 2006).

Assay [1] concerns rats with d-galactosamine-induced acute hepatitis. Briefly: D-galactosamine-induced acute hepatitis in rats, serum GOT and GPT. To be noted: rat serum 24 h after d-galactosamine i.p. (500 mg/kg); test substance oral × 3, dose per group as in Table 3; N = 5. It counts as in vivo.
Method: The liver enzymes were dramatically released to the blood stream when the hepatocyte was damaged, and thus the serum GOT and GPT values increased. […] In other words, the restoration effects of the extracts on the damaged liver were evaluated through comparing the GOT and GPT variations before and after a treatment of the extracts.
Five male rats were divided in each group, each rat with body weight about 200±20 g. […] The reference group was orally given guanine (300 mg/kg). Half an hour later, each group was i.p. with d-galactosamine (500 mg/kg), except the control group. Four and eight hours after first injection, test substances were administered orally again at the same dose. After 24 hours, the animals were sacrificed, and the blood was collected from the carotid arteries. The serum was separated and incubated at room temperature for 10 minutes, and then centrifuged (Backman centrifuge, GS-6R, 3000 rpm) for another 10 minutes. The activities of rat serum GOT (Glutamyl Oxaloacetic Transaminase) and GPT (Glutamyl Pyrubic Transaminase) were measured.
The next assay has as its system B type hepatitis. To be noted: treating B type hepatitis; cited from earlier work.

In the case of `Nc1nc2nc[nH]c2c(=O)[nH]1` [Guanine, guanine], in assay [1], the GOT turned out to be 1024.8 ± 91.1 U/L and the GPT turned out to be 602.4 ± 61.7 U/L. interferon: the positive response in the assay on B type hepatitis is given as 20%.
